Source: patent US20140163061A1, “Methods For Reducing Blood Pressure” (FibroGen, Inc., priority 2008, published 2014)

System: Nx rats (5/6 nephrectomy, hypertensive chronic kidney disease)
Assay: Nx rats treated with various HIF prolyl hydroxylase inhibitors, change in systolic blood pressure after four weeks, Example 4
Assay type: in vivo, rat
Protocol: A characteristic pathophysiology found in the uremic chronic kidney disease (CKD) population is hypertension. […] (Priyadarshi et al. (2002) Kidney Int 61:542-546; Coleman et al. (2006) Proc Natl Acad Sci USA 103:5965-5970.) The surgical procedure used to generate the rat remnant kidney was performed according to modification of the procedure described by Priyadarshi et al. (supra) or according to modification of the procedure described by Tanaka et al. (2005, Lab Invest 85:1292-1307). Separate studies used either male Sprague Dawley rats (280-300 g) or female Wistar rats (220-250 g).
Animals were divided into two groups of which one group (sham) underwent sham surgery and the other group (Nx) was subjected to 5/6 nephrectomy as follows. Animals were anesthetized under isoflurane, and a midline abdominal incision was made, followed by blunt dissection of the renal pedicles. Two or three branches of the left renal artery were ligated to infarct two thirds of the left kidney, while the right kidney underwent simultaneous nephrectomy. The infarct was verified by observing the change in kidney color. Animal body temperature was maintained constant, and warm (˜37° C.) saline (1.0 mL) was administered directly into the abdomen. Thereafter, the incision was sutured and the animal was allowed to recover and have free access to regular food and water. Animal body weight and mortality were closely monitored.
Starting 35 days after surgery, Nx and sham animals were randomly divided into groups and treated with either vehicle or compound A. Compound was dosed three times per week by oral gavage at 20 or 40 mg/kg compound per dose. Blood pressure (BP) was measured using a Kent XBP1000 system (Kent Scientific Corp., Torrington, Conn.) or a Muromachi tail-cuff blood pressure system (Muromachi Kikai Co., Ltd., Tokyo, Japan), both having volume/pressure recording technology and used according to the manufacturer's instruction. Rats were slightly warmed under a lamp and conditioned carefully before the measurement. BP was recorded as the mean value of 3 separate measurements obtained at each session and reported herein as mean±SEM. Results are compared using 1-way analysis of variance (ANOVA) and Student-Newman-Keuls method (SigmaStat, SPSS Science, Chicago, Ill.).
In another series of experiments, rats subjected to 5/6 nephrectomy were treated 35 days after surgery according to the dosing schedule described in Example 3 above with a HIF prolyl hydroxylase inhibitor. Individual compound selected from the group consisting of compounds A and C-K were administered by oral gavage at 8, 20, 30, or 40 mg/kg (see Table 1 and Table 2). Systolic blood pressure was recorded at day 35 (baseline) and again immediately following the last dose of compound. Table 1 and Table 2 show changes in systolic blood pressure following four weeks of oral administration of various compounds of the present invention to Nx rats.

SMILES | SBP (mmHg) Change from Vehicle (20 mg/kg oral) | SBP (mmHg) Change from Vehicle (8 mg/kg oral) | other results
COc1cccc(Cn2ccc3c(O)c(C(=O)NCC(=O)O)nc(C#N)c32)c1 [E, {[7-cyano-4-hydroxy-1-(3-methoxy-benzyl)-1H-pyrrolo[2,3-c]pyridine-5-carbonyl]-amino}-acetic acid] | −18.55 mmHg |  | SBP (mmHg) Change from Baseline (20 mg/kg oral): −7.12 mmHg
N#Cc1nc(C(=O)NCC(=O)O)c(O)c2c(Oc3ccccc3)cccc12 [I, [(1-cyano-4-hydroxy-5-phenoxy-isoquinoline-3-carbonyl)-amino]-acetic acid] | −11.00 mmHg |  | 
N#Cc1nc(C(=O)NCC(=O)O)c(O)c2ccn(Cc3ccccc3F)c12 [G, {[7-cyano-1-(2-fluoro-benzyl)-4-hydroxy-1H-pyrrolo[2,3-c]pyridine-5-carbonyl]-amino}-acetic acid] |  | −19.27 mmHg | 
Cc1cccc(C)c1Oc1ccc2c(O)c(C(=O)NCC(=O)O)nc(C#N)c2c1 [J, {[1-cyano-7-(2,6-dimethyl-phenoxy)-4-hydroxy-isoquinoline-3-carbonyl]-amino}-acetic acid] |  | −2.66 mmHg | 
COc1ccc(Cn2cc(Br)c3c(O)c(C(=O)NCC(=O)O)nc(C#N)c32)cc1 [K, {[3-bromo-7-cyano-4-hydroxy-1-(4-methoxy-benzyl)-1H-pyrrolo[2,3-c]pyridine-5-carbonyl]-amino}-acetic acid] |  | −19.92 mmHg | 
CC(C)Oc1ccc2c(O)c(C(=O)NCC(=O)O)nc(C#N)c2c1 [Compound D, [(1-cyano-4-hydroxy-7-isopropoxy-isoquinoline-3-carbonyl)-amino]-acetic acid] | −24.73 mmHg | −12.4 mmHg | SBP (mmHg) Change from Baseline (8 mg/kg oral): −22.14 mmHg; SBP (mmHg) Change from Baseline (20 mg/kg oral): −9.25 mmHg
COc1ccc(Oc2ccc3c(O)c(C(=O)NCC(=O)O)ncc3c2)cc1 [C, {[4-hydroxy-7-(4-methoxy-phenoxy)-isoquinoline-3-carbonyl]-amino}-acetic acid] |  |  | SBP (mmHg) Change from Baseline (30 mg/kg oral): −13.72 mmHg; SBP (mmHg) Change from Vehicle (30 mg/kg oral): −34.03 mmHg
N#Cc1nc(C(=O)NCC(=O)O)c(O)c2ccn(Cc3ccc4ccccc4c3)c12 [F, [(7-cyano-4-hydroxy-1-naphthalen-2-ylmethyl-1H-pyrrolo[2,3-c]pyridine-5-carbonyl)-amino]-acetic acid] |  | −23.88 mmHg | SBP (mmHg) Change from Baseline (8 mg/kg oral): −10.58 mmHg
COc1ccc(Cn2c(Cl)c(Cl)c3c(O)c(C(=O)NCC(=O)O)nc(C#N)c32)cc1 [H, {[2,3-dichloro-7-cyano-4-hydroxy-1-(4-methoxy-benzyl)-1H-pyrrolo[2,3-c]pyridine-5-carbonyl]-amino}-acetic acid] | −15.73 mmHg |  | 
